The test system of this series is CCRIS mutagenicity, Ames/micronucleus/aberration tests. Kind of series: CCRIS mutagenicity studies.
The mark [1] stands for this setting: Test System: AMES SALMONELLA TYPHIMURIUM, Strain/Indicator: TA98, Metabolic Activation: NONE, Method: STANDARD PLATE.
[2] abbreviates: Test System: AMES SALMONELLA TYPHIMURIUM, Strain/Indicator: TA98, Metabolic Activation: RAT, LIVER, S-9, AROCLOR 1254, Method: STANDARD PLATE.
Where [3] appears, read: Test System: AMES SALMONELLA TYPHIMURIUM, Strain/Indicator: TA100, Metabolic Activation: NONE, Method: STANDARD PLATE.
[4] abbreviates: Test System: AMES SALMONELLA TYPHIMURIUM, Strain/Indicator: TA100, Metabolic Activation: RAT, LIVER, S-9, AROCLOR 1254, Method: STANDARD PLATE.

SMILES strings stand for the structures. The source made the active and inactive calls. The rule behind the calls is not given here.

The results in this text go back to PubChem BioAssay AID1259407 (Chemical Carcinogenesis Research Information System (CCRIS), 2018).

On to `Cc1ccc(N(CC2(O)OC[C@@H](O)[C@@H](O)[C@@H]2O)N=O)cc1` (stereo partly drawn), for which the mutagenic call (Test System: AMES SALMONELLA TYPHIMURIUM, Strain/Indicator: TA100, Metabolic Activation: NONE, Method: LIQUID INCUBATION) is “active; positive”.

In the case of `CCCCON=O`, the mutagenic call was “inactive; negative” (Test System: AMES SALMONELLA TYPHIMURIUM, Strain/Indicator: TA98, Metabolic Activation: HAMSTER, LIVER, S-9, AROCLOR 1254, Method: STANDARD PLATE); “inactive; negative” under setting [1]; “inactive; negative” under setting [2]; “active; positive” (Test System: AMES SALMONELLA TYPHIMURIUM, Strain/Indicator: TA98, Metabolic Activation: S-9, Method: STANDARD PLATE); “inactive; negative” (Test System: AMES SALMONELLA TYPHIMURIUM, Strain/Indicator: TA100, Metabolic Activation: HAMSTER, LIVER, S-9, AROCLOR 1254, Method: STANDARD PLATE); “active; positive” under setting [3]. For the same molecule, the mutagenic call was “inactive; negative” under setting [4]; “active; positive” (Test System: AMES SALMONELLA TYPHIMURIUM, Strain/Indicator: TA100, Metabolic Activation: S-9, Method: STANDARD PLATE); “active; positive” (Test System: AMES SALMONELLA TYPHIMURIUM, Strain/Indicator: TA1535, Metabolic Activation: HAMSTER, LIVER, S-9, AROCLOR 1254, Method: STANDARD PLATE); “active; positive” (Test System: AMES SALMONELLA TYPHIMURIUM, Strain/Indicator: TA1535, Metabolic Activation: NONE, Method: STANDARD PLATE); “active; positive” (Test System: AMES SALMONELLA TYPHIMURIUM, Strain/Indicator: TA1535, Metabolic Activation: RAT, LIVER, S-9, AROCLOR 1254, Method: STANDARD PLATE); “inactive; negative” (Test System: AMES SALMONELLA TYPHIMURIUM, Strain/Indicator: TA1537, Metabolic Activation: HAMSTER, LIVER, S-9, AROCLOR 1254, Method: STANDARD PLATE). The mutagenic call reads like this: (Test System: AMES SALMONELLA TYPHIMURIUM, Strain/Indicator: TA1537, Metabolic Activation: NONE, Method: STANDARD PLATE) “inactive; negative”; (Test System: AMES SALMONELLA TYPHIMURIUM, Strain/Indicator: TA1537, Metabolic Activation: RAT, LIVER, S-9, AROCLOR 1254, Method: STANDARD PLATE) “inactive; negative”; (Test System: MOUSE LYMPHOMA, Strain/Indicator: L5178Y (TK+/TK-), Metabolic Activation: NONE, Method: SUSPENSION/PLATE) “active; positive. reevaluation of results: positive”; (Test System: MOUSE LYMPHOMA, Strain/Indicator: L5178Y (TK+/TK-), Metabolic Activation: RAT, LIVER, S-9, AROCLOR 1254, Method: SUSPENSION/PLATE) “active; positive. reevaluation of results: positive”.

With `CCCCOc1cc(N=Nc2ccc(N(CC)CC)cc2)ccc1N=Nc1c(S(=O)(=O)O)cc2ccc(N)cc2c1O`, the mutagenic call under setting [1] was “inactive; negative”; the mutagenic call under setting [2] was “active; positive”; the mutagenic call under setting [3] is “inactive; negative”; the mutagenic call under setting [4] is “inactive; negative”; the mutagenic call (Test System: AMES SALMONELLA TYPHIMURIUM, Strain/Indicator: TA1538, Metabolic Activation: NONE, Method: STANDARD PLATE) is “inactive; negative”; the mutagenic call (Test System: AMES SALMONELLA TYPHIMURIUM, Strain/Indicator: TA1538, Metabolic Activation: RAT, LIVER, S-9, AROCLOR 1254, Method: STANDARD PLATE) was “active; positive”.
